Assay results taken from patent US20230263808A1 (UNIVERSITY OF FLORIDA RESEARCH FOUNDATION, INCORPORATED, priority 2020, published 2023).
Entries after “also recorded” stand apart in the source; their conditions may differ.

Columns and labels:
[1] = test system: IL-1β-induced IL-6 secretion by A549 lung cells; assay: IL-1β-induced IL-6 secretion by A549 lung cells (AlphaLISA); format: cell-based; details: 10 μM
Text: A) Correlation of correlation (COC) plots where each point represents the Pearson correlation coefficient, r, between a distinct gene expression or GR-peptide interaction assay with assays indicated on the x and y axes. B) The effects of all tested compounds on IL-1β-induced secretion of IL-6 (y axes) and GC-regulated phenotypes indicated on the x axes. C) The effects of all tested compounds on IL-1β-induced secretion of IL-6 (y axis) and bone mineralization (x axis). D) IL-1β-induced IL-6 production by A549 cells treated with 10 μM of the indicated compounds was compared by AlphaLISA. E-H) Myoblasts were assayed as described in FIG. 8. I) Representative myoblasts imaged during the mitochondrial potential assay. J) Plasma TNFα levels of C57BL/6 male mice treated pretreated with the indicated ligands. K) Changes in lean mass of mice in panel J were determined by whole-body NMR after an additional 18 h LPS treatment. Data shown are mean+SEM.
In order to understand whether effects on skeletal muscle could be dissociated from anti-inflammatory effects of the ligands, we profiled the compounds for suppression of IL1β-induced IL-6 secretion by A549 lung cells. Examining the correlations between assays can be used to identify dissociated assays that selectively correlate with a given phenotype, predicting discovery of dissociated ligands. […] We call this a correlation of correlations (COC) plot. […] These include recruitment of NCOA2 and NCOA3 peptides, coactivators that we and others have shown to be required for GC-dependent suppression of inflammation in different cell types (FIG. 11, A). However, for the mitochondrial assay and IL-6, there are dissociated assays shown by points that are far out from the regression line in the COC plot (FIG. 7, A). For example, interaction of CHD9 with GR predicted mitochondrial activity but not Glut4 translocation (FIG. 11, B), while interaction with the CENPR peptide selectively predicted effects on Glut4 translocation (FIG. 11, C). […] Assays that correlated with effects of the ligands on GR nuclear translocation were also highly correlated with Glut4 translocation and suppression of IL-6 secretion (FIG. 11, F). Therefore, the COC curves provide a way to identify common signaling mechanisms between different GR target tissues and signaling pathways.

[2] = test system: primary human osteoblasts; assay: Osteoblast mineralization (Alizarin Red S) from mesenchymal stem cells; format: cell-based
Protocol: A) Each dot represents the effects of a compound in the indicated assays at 10 uM. N=4-6 from two different experiments. […] C) SR11466 is efficacious at inhibiting IL-6 secretion from A549 cells. C-E). […] D) Mitochondrial activity was measured in myoblasts using high content imaging with mitotracker dye after 24 treatment. New amino acid incorporation was measured with LICOR in cell western for puromycin (SunSet assay). E) top, MMTV-luciferase reporter data. N=3, mean+SEM. Bottom, Mineralization of primary human OBs was assayed after two weeks of differentiation from MSC and two weeks of mineralization. N=4, mean+SEM, 2-way ANOVA.
As a further test for dissociation, the compounds were profiled in primary human osteoblasts for effects on osteogenesis during 4 weeks of differentiation from mesenchymal stem cells. Specifically, osteoblast mineralization was examined as follows. Human mesenchymal stem cells (MSCs) at passage 2 were maintained in growth media consisted of alpha-MEM (Life Technologies, 32561-037) supplemented with 17% FBS (Sigma-Aldrich, 12303C), 2 mM L-glutarnine (Life Technologies, 25030-081), and 100 units/mL penicillin/streptomycin (Life Technologies, 15140-122). Effect of glucocorticoid receptor modulators on osteogenic differentiation of MSCs was quantified using Alizarin Red S (Sigma-Aldrich, A5533) staining. Briefly, human MSCs were seeded in the middle 8 wells of 48-well plates at plating density of 10,000 cells per well. PBS (Life Technologies, 10010-031) was added to surrounding wells to reduce evaporation of media in the middle wells during prolonged incubation. 24 h later, growth media was replaced by osteogenic induction media (OIM) consisted of low-glucose DMEM (Life Technologies, 10567-014) supplemented with 10% FBS (Sigma-Aldrich. 12303C), 50 μg/ml L-ascorbic-2-phosphate (Sigma-Aldrich, A8960), 10 mM β-glyceroiphosphate (Sigma-Aldrich, G9891), and glucocorticoid modulators. OIM containing test compounds was replaced every week. At the end of 2 weeks, monolayers were washed with PBS (Life Technologies, 10010-031), incubated in Richard-Allan Scientific™ Neutral Buffered Formalin (10%) (Thermo Scientific, 5725) for 2 h at room temperature, washed with deionized water and stained with Alizarin Red S for 30 min at room temperature. Monolayers were then rinsed 3×with deionized water until clear, stain was then extracted with 10% (w/v) cetylpyridinium chloride (Sigma-Aldrich, C0732) in 10 mM sodium phosphate (Sigma, S5011 and S5136), pH 7.0 for 15 min at room temperature and the amount of extracted dye quantified spectroscopically at 562 nm. Spectroscopic analysis performed using a synergy™ NEO HTS Multi-Mode Microplate Reader (BioTek Instruments, Inc.).

| Structure (SMILES) | inhibition of IL-1β-induced IL-6 secretion (anti-inflammatory) [1] | effect on mineralization (bone) [2] |
| --- | --- | --- |
| C=CCOC1CC2(C)C(CCC2(O)C#CC)C2CCc3cc(C(=O)Nc4cccnc4C)ccc3C12 (centres unmarked) [SR11466] | as efficiently as Dex; also recorded: fully inhibiting IL-6 secretion; also recorded: efficacious; also recorded: inhibited IL-6 secretion as efficiently as dexamethasone | modest improvements on mineralization |
| CC#CC1(O)CCC2C3CCc4cc(C(=O)Nc5cccnc5C)ccc4C3C(OCc3ccccc3Cl)CC21C (centres unmarked) [SR16024] | partially inhibited; also recorded: weakly anti-inflammatory | bone sparing |
| CC#CC1(O)CCC2C3CCc4cc(C(=O)Nc5cccnc5C)ccc4C3C(OCc3ccc(Cl)cc3)CC21C (centres unmarked) [SR16025] | weakly anti-inflammatory | more than quadrupled; also recorded: quadruple |
| CC#CC1(O)CCC2C3CCc4cc(C(=O)Nc5cnccc5C)ccc4C3C(O)CC21C (centres unmarked) [SR15421] | anti-inflammatory | completely bone sparing |
